Key:
Assay in all cases: KinaseProfiler off-target kinase profiling
Type in all cases: biochemical
Conditions in all cases: 10 μM, ATP near Km
MRCKalpha = MRCKalpha (Homo sapiens (Human), UniProt Q5VT25)
Experimental: (§1) Representative compounds (Examples 12, 32, 26 and 2) of the invention were tested for off-target kinase activity at a concentration of 10 μM by Millipore, Inc. in their KinaseProfiler™ service against all the kinases available in their full kinase panel. Compounds were run in duplicate at a concentration of ATP near the Km for each individual kinase according to Millipore's specifications. The results are shown in Table B. Data are reported as percent of control (POC) and are the average of the two replicates.

LIMK1 = LIMK1 (Homo sapiens (Human), UniProt P53667)
Experimental: as §1

CDK6/cyclinD3 = CDK6/cyclinD3 (Homo sapiens (Human), UniProt Q00534)
Experimental: as §1

IGF-1R Activated = IGF-1R Activated (Homo sapiens (Human), UniProt P08069)
Experimental: as §1

EphB2 = EphB2 (Homo sapiens (Human), UniProt P29323)
EphB2, sequence (P29323 19-1055): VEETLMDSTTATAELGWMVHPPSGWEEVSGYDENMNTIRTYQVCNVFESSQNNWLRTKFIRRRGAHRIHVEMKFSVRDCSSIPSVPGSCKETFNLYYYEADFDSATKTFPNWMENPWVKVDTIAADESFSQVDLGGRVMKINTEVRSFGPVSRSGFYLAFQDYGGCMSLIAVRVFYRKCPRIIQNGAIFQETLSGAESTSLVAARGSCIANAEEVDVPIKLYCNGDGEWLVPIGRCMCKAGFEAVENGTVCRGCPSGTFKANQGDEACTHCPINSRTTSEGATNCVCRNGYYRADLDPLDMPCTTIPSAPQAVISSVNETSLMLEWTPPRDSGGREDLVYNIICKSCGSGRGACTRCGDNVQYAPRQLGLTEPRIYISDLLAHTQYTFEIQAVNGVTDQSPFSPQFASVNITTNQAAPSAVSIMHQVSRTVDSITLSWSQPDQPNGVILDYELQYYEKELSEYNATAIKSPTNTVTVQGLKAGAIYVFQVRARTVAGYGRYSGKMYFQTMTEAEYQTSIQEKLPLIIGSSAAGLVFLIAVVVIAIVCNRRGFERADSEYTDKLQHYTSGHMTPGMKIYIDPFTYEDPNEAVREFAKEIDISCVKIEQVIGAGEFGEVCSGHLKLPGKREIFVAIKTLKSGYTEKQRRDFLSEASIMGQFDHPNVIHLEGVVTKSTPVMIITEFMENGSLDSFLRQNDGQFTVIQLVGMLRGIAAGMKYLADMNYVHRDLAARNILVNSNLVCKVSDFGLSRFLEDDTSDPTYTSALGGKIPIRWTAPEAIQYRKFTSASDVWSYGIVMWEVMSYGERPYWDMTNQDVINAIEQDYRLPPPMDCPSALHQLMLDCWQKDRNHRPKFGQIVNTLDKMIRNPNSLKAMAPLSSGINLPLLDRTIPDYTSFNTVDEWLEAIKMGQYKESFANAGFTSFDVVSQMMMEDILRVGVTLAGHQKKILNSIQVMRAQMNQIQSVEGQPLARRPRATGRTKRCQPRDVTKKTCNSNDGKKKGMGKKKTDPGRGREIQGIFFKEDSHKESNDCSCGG
Experimental: as §1

IR Activated = IR Activated (Homo sapiens (Human), UniProt P06213)
Experimental: as §1

MAPKAP-K3 = MAPKAP-K3 (Homo sapiens (Human), UniProt Q16644)
Experimental: as §1

TLK2 = TLK2 (Homo sapiens (Human), UniProt Q86UE8)
TLK2, sequence (Q86UE8 whole entry): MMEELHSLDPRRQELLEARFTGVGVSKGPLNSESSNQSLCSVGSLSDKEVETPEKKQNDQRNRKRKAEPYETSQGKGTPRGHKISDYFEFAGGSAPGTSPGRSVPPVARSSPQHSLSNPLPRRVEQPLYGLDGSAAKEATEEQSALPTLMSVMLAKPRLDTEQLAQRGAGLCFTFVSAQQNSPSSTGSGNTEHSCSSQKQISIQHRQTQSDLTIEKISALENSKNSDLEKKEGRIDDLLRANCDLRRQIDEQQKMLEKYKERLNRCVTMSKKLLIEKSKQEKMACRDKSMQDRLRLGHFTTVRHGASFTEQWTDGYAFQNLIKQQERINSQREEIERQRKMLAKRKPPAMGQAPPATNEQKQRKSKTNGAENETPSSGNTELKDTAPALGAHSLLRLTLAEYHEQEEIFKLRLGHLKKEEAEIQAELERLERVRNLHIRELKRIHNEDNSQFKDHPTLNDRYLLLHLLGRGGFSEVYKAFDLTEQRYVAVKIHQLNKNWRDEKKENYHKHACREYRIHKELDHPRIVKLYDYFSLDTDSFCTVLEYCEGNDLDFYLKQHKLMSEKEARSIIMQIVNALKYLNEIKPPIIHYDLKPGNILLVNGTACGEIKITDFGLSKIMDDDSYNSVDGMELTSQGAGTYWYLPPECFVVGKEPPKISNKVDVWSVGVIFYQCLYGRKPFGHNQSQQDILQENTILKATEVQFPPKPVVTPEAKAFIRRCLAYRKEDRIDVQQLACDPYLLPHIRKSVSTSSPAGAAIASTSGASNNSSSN
Experimental: as §1

CDK1/cyclinB = CDK1/cyclinB (Homo sapiens (Human), UniProt P06493)
Experimental: as §1

mTOR/FKBP12 = mTOR/FKBP12 (Homo sapiens (Human), UniProt P42345)
Experimental: as §1

MST2 = MST2 (Homo sapiens (Human), UniProt Q13188)
Experimental: as §1

Bmx = Bmx (Homo sapiens (Human), UniProt P51813)
Experimental: as §1

Fyn = Fyn (Homo sapiens (Human), UniProt P06241)
Experimental: as §1

CAMK1 = CAMK1 (Homo sapiens (Human), UniProt Q14012)
Experimental: as §1

PKCepsilon = PKCepsilon (Homo sapiens (Human), UniProt Q02156)
Experimental: as §1

PTK5 = PTK5 (Homo sapiens (Human), UniProt P42685)
Experimental: as §1

Rsk4 = Rsk4 (Homo sapiens (Human), UniProt Q9UK32)
Experimental: as §1

IRAK4 = IRAK4 (Homo sapiens (Human), UniProt Q9NWZ3)
Experimental: as §1

DDR2 = DDR2 (Homo sapiens (Human), UniProt Q16832)
Experimental: as §1

Lck = Lck (Homo sapiens (Human), UniProt P06239)
Experimental: as §1

PTK6 = PTK6 (Homo sapiens (Human), UniProt Q13882)
Experimental: as §1

NEK11 = NEK11 (Homo sapiens (Human), UniProt Q8NG66)
Experimental: as §1

TrkA = TrkA (Homo sapiens (Human), UniProt P04629)
TrkA, sequence (P04629 33-796): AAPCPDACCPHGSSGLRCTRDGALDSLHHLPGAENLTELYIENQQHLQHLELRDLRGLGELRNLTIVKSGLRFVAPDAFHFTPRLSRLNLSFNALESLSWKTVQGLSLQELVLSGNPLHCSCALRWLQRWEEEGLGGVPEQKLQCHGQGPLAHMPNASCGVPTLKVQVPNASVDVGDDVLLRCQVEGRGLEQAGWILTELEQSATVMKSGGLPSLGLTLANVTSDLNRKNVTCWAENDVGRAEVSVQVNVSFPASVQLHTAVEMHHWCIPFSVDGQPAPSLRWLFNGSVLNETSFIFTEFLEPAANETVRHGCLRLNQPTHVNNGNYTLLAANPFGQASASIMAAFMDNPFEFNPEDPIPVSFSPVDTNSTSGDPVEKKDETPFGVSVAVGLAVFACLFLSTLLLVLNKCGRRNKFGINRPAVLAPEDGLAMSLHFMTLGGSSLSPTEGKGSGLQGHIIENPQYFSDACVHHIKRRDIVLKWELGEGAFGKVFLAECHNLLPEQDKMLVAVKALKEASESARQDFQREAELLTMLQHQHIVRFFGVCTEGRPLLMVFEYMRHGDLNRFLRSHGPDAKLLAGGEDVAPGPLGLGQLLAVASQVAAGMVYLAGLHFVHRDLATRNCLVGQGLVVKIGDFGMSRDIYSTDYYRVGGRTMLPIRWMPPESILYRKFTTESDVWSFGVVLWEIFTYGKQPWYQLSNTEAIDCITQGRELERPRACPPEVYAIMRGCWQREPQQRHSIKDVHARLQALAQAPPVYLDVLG
Experimental: as §1

CDK7/cyclinH/MAT1 = CDK7/cyclinH/MAT1 (Homo sapiens (Human), UniProt P50613)
Experimental: as §1

CAMK4 = CAMK4 (Homo sapiens (Human), UniProt Q16566)
Experimental: as §1

Fgr = Fgr (Homo sapiens (Human), UniProt P09769)
Experimental: as §1

Pim-1 = Pim-1 (Homo sapiens (Human), UniProt P11309)
Pim-1, sequence (P11309 whole entry): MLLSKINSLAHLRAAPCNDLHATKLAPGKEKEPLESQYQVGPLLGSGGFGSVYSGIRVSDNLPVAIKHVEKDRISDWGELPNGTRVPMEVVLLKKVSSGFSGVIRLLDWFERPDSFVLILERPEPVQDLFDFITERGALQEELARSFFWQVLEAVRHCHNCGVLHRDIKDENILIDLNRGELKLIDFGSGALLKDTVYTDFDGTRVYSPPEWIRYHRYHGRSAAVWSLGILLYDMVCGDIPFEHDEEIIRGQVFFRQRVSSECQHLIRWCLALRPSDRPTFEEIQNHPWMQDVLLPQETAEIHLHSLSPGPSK
Experimental: as §1

MINK = MINK (Homo sapiens (Human), UniProt Q8N4C8)
Experimental: as §1

PKAC-alpha = PKAC-alpha (Homo sapiens (Human), UniProt P17612)
Experimental: as §1

ULK3 = ULK3 (Homo sapiens (Human), UniProt Q6PHR2)
ULK3, sequence (Q6PHR2 whole entry): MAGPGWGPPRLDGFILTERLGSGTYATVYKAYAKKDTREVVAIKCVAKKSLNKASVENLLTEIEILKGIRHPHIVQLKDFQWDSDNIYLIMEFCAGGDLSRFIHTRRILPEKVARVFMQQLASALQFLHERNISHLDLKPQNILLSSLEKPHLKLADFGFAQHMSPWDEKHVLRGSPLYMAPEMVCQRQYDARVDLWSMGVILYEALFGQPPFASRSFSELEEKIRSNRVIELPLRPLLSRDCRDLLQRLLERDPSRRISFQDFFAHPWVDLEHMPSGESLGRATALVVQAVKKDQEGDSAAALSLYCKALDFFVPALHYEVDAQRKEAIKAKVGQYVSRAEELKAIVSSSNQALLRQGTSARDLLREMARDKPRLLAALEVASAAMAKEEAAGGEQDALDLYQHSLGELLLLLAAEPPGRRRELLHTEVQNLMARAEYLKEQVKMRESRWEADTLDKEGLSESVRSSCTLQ
Experimental: as §1

Axl = Axl (Homo sapiens (Human), UniProt P30530)
Axl, sequence (P30530 26-894): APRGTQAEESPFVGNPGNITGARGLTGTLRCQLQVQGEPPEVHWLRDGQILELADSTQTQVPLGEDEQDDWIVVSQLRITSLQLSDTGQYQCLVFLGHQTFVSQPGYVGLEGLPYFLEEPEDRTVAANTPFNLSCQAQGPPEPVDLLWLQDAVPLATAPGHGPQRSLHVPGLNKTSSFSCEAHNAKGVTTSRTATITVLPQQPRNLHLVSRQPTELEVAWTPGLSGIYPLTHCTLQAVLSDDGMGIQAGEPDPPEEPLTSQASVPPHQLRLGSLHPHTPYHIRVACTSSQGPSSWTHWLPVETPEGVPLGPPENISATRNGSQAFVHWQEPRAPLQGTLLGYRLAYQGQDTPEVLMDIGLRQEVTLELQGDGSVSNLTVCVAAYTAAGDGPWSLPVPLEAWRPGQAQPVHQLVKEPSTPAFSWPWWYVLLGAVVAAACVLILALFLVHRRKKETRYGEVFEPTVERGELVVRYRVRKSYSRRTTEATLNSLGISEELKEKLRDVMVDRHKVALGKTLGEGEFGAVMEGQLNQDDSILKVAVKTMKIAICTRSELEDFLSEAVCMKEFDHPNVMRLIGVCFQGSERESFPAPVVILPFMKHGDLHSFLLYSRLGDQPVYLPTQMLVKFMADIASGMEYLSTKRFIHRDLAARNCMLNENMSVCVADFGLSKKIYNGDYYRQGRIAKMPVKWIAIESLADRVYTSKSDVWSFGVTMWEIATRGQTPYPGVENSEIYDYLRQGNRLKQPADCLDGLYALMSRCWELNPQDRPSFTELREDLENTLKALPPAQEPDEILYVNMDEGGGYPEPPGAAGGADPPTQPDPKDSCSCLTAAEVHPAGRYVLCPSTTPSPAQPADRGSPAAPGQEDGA
Experimental: as §1

KIT = KIT (Homo sapiens (Human), UniProt P10721)
Experimental: as §1

mTOR = mTOR (Homo sapiens (Human), UniProt P42345)
Experimental: as §1

GRK5 = GRK5 (Homo sapiens (Human), UniProt P34947)
Experimental: as §1

MuSK = MuSK (Homo sapiens (Human), UniProt O15146)
Experimental: as §1

SIK = SIK (Homo sapiens (Human), UniProt P57059)
Experimental: as §1

BrSK2 = BrSK2 (Homo sapiens (Human), UniProt Q8IWQ3)
BrSK2, sequence (Q8IWQ3 whole entry): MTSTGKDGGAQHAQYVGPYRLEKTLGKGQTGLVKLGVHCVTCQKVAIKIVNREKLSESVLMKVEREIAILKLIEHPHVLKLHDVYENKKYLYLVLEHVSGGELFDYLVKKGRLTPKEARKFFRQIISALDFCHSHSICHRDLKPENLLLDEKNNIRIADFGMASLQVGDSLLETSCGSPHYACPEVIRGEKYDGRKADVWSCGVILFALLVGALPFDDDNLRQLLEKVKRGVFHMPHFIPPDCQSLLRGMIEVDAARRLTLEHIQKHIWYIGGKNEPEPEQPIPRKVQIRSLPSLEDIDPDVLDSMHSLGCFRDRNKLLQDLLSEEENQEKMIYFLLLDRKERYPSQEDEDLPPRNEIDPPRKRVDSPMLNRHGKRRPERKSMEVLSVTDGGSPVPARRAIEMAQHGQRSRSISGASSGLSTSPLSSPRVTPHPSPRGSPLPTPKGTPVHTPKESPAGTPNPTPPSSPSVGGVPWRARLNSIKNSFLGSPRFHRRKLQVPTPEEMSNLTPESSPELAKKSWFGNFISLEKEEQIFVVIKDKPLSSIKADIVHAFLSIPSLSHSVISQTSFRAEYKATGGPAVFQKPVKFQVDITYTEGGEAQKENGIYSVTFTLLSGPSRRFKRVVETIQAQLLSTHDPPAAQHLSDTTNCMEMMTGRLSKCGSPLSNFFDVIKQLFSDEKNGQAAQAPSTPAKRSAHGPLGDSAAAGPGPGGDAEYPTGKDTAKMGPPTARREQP
Experimental: as §1

Rsk1 = Rsk1 (Homo sapiens (Human), UniProt Q15418)
Experimental: as §1

DRAK1 = DRAK1 (Homo sapiens (Human), UniProt Q9UEE5)
Experimental: as §1

SMILES: COCc1ccc2c(c1)C(NC(=O)Nc1c(C)c(-c3cnn(C)c3)nn1-c1ccccc1)COC2 (stereo not drawn) [Example 32, 1-(1′,4-dimethyl-1-phenyl-1H,1′H-[3,4′-bipyrazol]-5-yl)-3-(6-(methoxymethyl)isochroman-4-yl)urea]
- Avg. POC (MRCKalpha): 131 POC
- Avg. POC (LIMK1): 95 POC
- Avg. POC (CDK6/cyclinD3): 108 POC
- Avg. POC (IGF-1R Activated): 112.5 POC
- Avg. POC (EphB2): 96.5 POC
- Avg. POC (IR Activated): 111.5 POC
- Avg. POC (MAPKAP-K3): 105 POC
- Avg. POC (TLK2): 92 POC
- Avg. POC (CDK1/cyclinB): 104 POC
- Avg. POC (mTOR/FKBP12): 113.5 POC
- Avg. POC (MST2): 111.5 POC
- Avg. POC (Bmx): 106.5 POC
- Avg. POC (Fyn): 111 POC
- Avg. POC (CAMK1): 100 POC
- Avg. POC (PKCepsilon): 97.5 POC
- Avg. POC (PTK5): 104 POC
- Avg. POC (Rsk4): 95 POC
- Avg. POC (IRAK4): 99 POC
- Avg. POC (DDR2): 116 POC
- Avg. POC (Lck): 104.5 POC
- Avg. POC (PTK6): 100 POC
- Avg. POC (NEK11): 108 POC
- Avg. POC (TrkA): 0 POC
- Avg. POC (CDK7/cyclinH/MAT1): 122.5 POC
- Avg. POC (CAMK4): 102 POC
- Avg. POC (Fgr): 109.5 POC
- Avg. POC (Pim-1): 109 POC
- Avg. POC (MINK): 124 POC
- Avg. POC (PKAC-alpha): 90 POC
- Avg. POC (ULK3): 92 POC
- Avg. POC (Axl): 119.5 POC
- Avg. POC (KIT): 94.5 POC
- Avg. POC (mTOR): 94.5 POC
- Avg. POC (GRK5): 90 POC
- Avg. POC (MuSK): 104.5 POC
- Avg. POC (SIK): 97 POC
- Avg. POC (BrSK2): 128.5 POC
- Avg. POC (Rsk1): 111.5 POC
- Avg. POC (DRAK1): 105.5 POC

Source: patent US10351575B2, “Bicyclic urea, thiourea, guanidine and cyanoguanidine compounds useful for the treatment of pain” (Array BioPharma Inc., priority 2012, dated 2019)
